In US20250163047A1, “HETEROCYCLIC COMPOUNDS, COMPOSITIONS THEREOF, AND METHODS OF TREATMENT THEREWITH” (BeiGene, Ltd., priority 2022, published 2025):

What was measured:
Cbl (aa49-434) = molecular target: T1, Cbl (aa49-434) (Homo sapiens, UniProt P22681); assay: Co-expressed Cbl with BirA biochemical assay (CBL/E2-Ub binding, HTRF); conditions: 0.6 nM Cbl co-expressed with BirA, read-out: co-express CBL/E2-Ub-binding assay IC50
T1 construct: Cbl (aa49-434, in-house); made in house
T1 sequence (P22681 49-434): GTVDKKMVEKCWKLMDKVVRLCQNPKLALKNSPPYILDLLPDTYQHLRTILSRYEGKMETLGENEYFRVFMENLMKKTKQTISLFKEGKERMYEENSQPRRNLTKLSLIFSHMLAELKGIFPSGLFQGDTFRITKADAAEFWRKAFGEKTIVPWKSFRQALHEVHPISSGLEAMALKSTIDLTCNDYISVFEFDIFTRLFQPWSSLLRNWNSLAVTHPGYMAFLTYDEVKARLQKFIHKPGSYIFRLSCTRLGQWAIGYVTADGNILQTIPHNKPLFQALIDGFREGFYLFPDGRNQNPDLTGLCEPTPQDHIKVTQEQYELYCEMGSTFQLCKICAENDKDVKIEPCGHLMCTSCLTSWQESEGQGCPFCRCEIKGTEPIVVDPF
From the text: (§1) The assay in the absence of a Cbl-b/Cbl inhibitor, where phosphorylation of Cbl-b/Cbl by the Src kinase allows UbcH5B-Ub to bind to Cbl-b/Cbl and brings the Bodipy-Fluorescein tagged ubiquitin in proximity to the streptavidin-terbium bound to the N-terminal biotinylated Avi-tagged Cbl-b/Cbl. […] The lack of a FRET signal indicates Cbl-b/Cbl is inhibited by the Cbl-b/Cbl inhibitor.

Cbl-b (aa36-427) = molecular target: T2, Cbl-b (aa36-427) (Homo sapiens, UniProt Q13191); assay: Co-expressed Cbl-b with BirA biochemical assay (CBLB/E2-Ub binding, HTRF); conditions: 0.6 nM Cbl-b co-expressed with BirA, HTRF; read-out: co-express CBLB/E2-Ub-binding assay IC50
T2 construct: Cbl-b (aa36-427, in-house); made in house
From the text: as §1

T2 sequence (Q13191 36-427): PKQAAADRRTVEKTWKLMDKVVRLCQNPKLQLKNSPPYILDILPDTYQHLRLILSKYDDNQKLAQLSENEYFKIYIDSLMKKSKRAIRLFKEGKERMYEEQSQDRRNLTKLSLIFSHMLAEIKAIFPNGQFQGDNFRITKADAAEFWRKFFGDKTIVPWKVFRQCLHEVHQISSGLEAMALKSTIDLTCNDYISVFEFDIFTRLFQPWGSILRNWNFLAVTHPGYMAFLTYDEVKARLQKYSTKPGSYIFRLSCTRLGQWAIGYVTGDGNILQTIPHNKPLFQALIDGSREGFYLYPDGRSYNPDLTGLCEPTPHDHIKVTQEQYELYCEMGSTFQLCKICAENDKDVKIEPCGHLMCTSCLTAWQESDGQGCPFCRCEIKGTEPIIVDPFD

Structure (SMILES): Cn1cnnc1[C@]1(c2cccc(NC(=O)c3cc(CNCC4CCCC4)c4c(n3)C(C)(C)CO4)c2)C[C@H](C)C1 [Compound C33, 7-(((cyclopentylmethyl)amino)methyl)-3,3-dimethyl-N-(3-((1s, 3s)-3-methyl-1-(4-methyl-4H-1,2,4-triazol-3-yl)cyclobutyl)phenyl)-2,3-dihydrofuro[3,2-b]pyridine-5-carboxamide]
- IC50 (Cbl (aa49-434)): 46.7 nM
- IC50 (Cbl-b (aa36-427)): 11.4 nM

Structure (SMILES): C[C@H](NCc1cc(C(=O)Nc2cccc([C@]3(c4nncn4C)C[C@@H](CC#N)C3)c2)nc2c1NCC21CC1)C1CC1 [Compound C36, N-(3-((1s,3R)-3-(cyanomethyl)-1-(4-methyl-4H-1,2,4-triazol-3-yl)cyclobutyl)phenyl)-7′-((((S)-1-cyclopropylethyl)amino)methyl)-1′,2′-dihydrospiro[cyclopropane-1,3′-pyrrolo[3,2-b]pyridine]-5′-carboxamide]
- IC50 (Cbl (aa49-434)): 2.8 nM
- IC50 (Cbl-b (aa36-427)): 1.8 nM

Structure (SMILES): C[C@H]1CCCN(Cc2cc(C(=O)Nc3cccc([C@]4(c5nncn5C)C[C@@H](C)C4)c3)nn3cccc23)C1 [Compound B13, 4-{[(3S)-3-methylpiperidin-1-yl]methyl}-N-{3-[(1r, 3s)-3-methyl-1-(4-methyl-1,2,4-triazol-3-yl)cyclobutyl]phenyl}pyrrolo[1,2-b]pyridazine-2-carboxamide]
- IC50 (Cbl (aa49-434)): 89.1 nM
- IC50 (Cbl-b (aa36-427)): 30.5 nM

Structure (SMILES): Cc1cnc2c(C(=O)Nc3cccc([C@]4(c5nncn5C)C[C@@H](CC#N)C4)c3)cc(CN3CCC[C@H](C)C3)cn12 [Compound A10, 3-methyl-6-{[(3S)-3-methylpiperidin-1-yl]methyl}-N-{3-[(1s, 3s)-3-(cyanomethyl)-1-(4-methyl-1,2,4-triazol-3-yl)cyclobutyl]phenyl}imidazo[1,2-a]pyridine-8-carboxamide]
- IC50 (Cbl (aa49-434)): 70.1 nM
- IC50 (Cbl-b (aa36-427)): 12 nM

Structure (SMILES): Cn1cnnc1[C@]1(c2cccc(NC(=O)c3cc(CNCC4CCC4)cn4c(Cl)cnc34)c2)C[C@H](C)C1 [Compound A57, 3-chloro-6-(((cyclobutylmethyl)amino)methyl)-N-(3-((1s, 3s)-3-methyl-1-(4-methyl-4H-1,2,4-triazol-3-yl)cyclobutyl)phenyl)imidazo[1,2-a]pyridine-8-carboxamide]
- IC50 (Cbl (aa49-434)): 1.8 nM
- IC50 (Cbl-b (aa36-427)): 0.6 nM

Structure (SMILES): C[C@@H]1CN(Cc2cc(C(=O)Nc3cccc([C@]4(c5nncn5C)C[C@@H](CC#N)C4)c3)nc3cc[nH]c23)C[C@H](C)C1(F)F [Compound B19, N-(3-((1s,3S)-3-(cyanomethyl)-1-(4-methyl-4H-1,2,4-triazol-3-yl)cyclobutyl)phenyl)-7-(((3R,5S)-4,4-difluoro-3,5-dimethylpiperidin-1-yl)methyl)-1H-pyrrolo[3,2-b]pyridine-5-carboxamide]
- IC50 (Cbl (aa49-434)): 77.7 nM
- IC50 (Cbl-b (aa36-427)): 10.3 nM

Structure (SMILES): C[C@H]1CCCN(Cc2cc(C(=O)Nc3cccc([C@]4(c5nncn5C)C[C@@H](CC#N)C4)c3)n3ncc(Cl)c3c2)C1 [Compound A21, 3-chloro-N-(3-((1s,3R)-3-(cyanomethyl)-1-(4-methyl-4H-1,2,4-triazol-3-yl)cyclobutyl)phenyl)-5-(((S)-3-methylpiperidin-1-yl)methyl)pyrazolo[1,5-a]pyridine-7-carboxamide]
- IC50 (Cbl (aa49-434)): 31 nM
- IC50 (Cbl-b (aa36-427)): 2.9 nM

Structure (SMILES): C[C@H](NCc1cc(C(=O)Nc2cccc([C@]3(c4nncn4C)C[C@@H](C)C3)c2)c2ncc(F)n2c1)C1CCC1 [Compound A65, 6-((((S)-1-cyclobutylethyl)amino)methyl)-3-fluoro-N-(3-((1s,3R)-3-methyl-1-(4-methyl-4H-1,2,4-triazol-3-yl)cyclobutyl)phenyl)imidazo[1,2-a]pyridine-8-carboxamide]
- IC50 (Cbl (aa49-434)): 2 nM
- IC50 (Cbl-b (aa36-427)): 0.9 nM

Structure (SMILES): C[C@H]1CCCN(Cc2cc(C(=O)Nc3cccc([C@]4(Cc5nncn5C)C[C@@H](C#N)C4)c3)nc3c2NCC32CC2)C1 [Compound C17, N-(3-((1r,3S)-3-cyano-1-((4-methyl-4H-1,2,4-triazol-3-yl)methyl)cyclobutyl)phenyl)-7′-(((S)-3-methylpiperidin-1-yl)methyl)-1′,2′-dihydrospiro[cyclopropane-1,3′-pyrrolo[3,2-b]pyridine]-5′-carboxamide]
- IC50 (Cbl (aa49-434)): 1.1 nM
- IC50 (Cbl-b (aa36-427)): 1.5 nM

Structure (SMILES): C[C@H]1CCCN(Cc2cc(C(=O)Nc3cccc([C@]4(Cc5nncn5C)C[C@@H](C#N)C4)c3)nc3c2OCC3(C)C)C1 [Compound C11, 3,3-dimethyl-7-{[(3S)-3-methylpiperidin-1-yl]methyl}-N-{3-[(1r, 3r)-3-cyano-1-[(4-methyl-1,2,4-triazol-3-yl)methyl]cyclobutyl]phenyl}-2H-furo[3,2-b]pyridine-5-carboxamide]
- IC50 (Cbl (aa49-434)): 1.5 nM
- IC50 (Cbl-b (aa36-427)): 0.8 nM

Structure (SMILES): C[C@H]1CCCN(Cc2cc(C(=O)Nc3cccc([C@]4(Cc5nncn5C)C[C@@H](C#N)C4)c3)nc3c2CCC3(C)C)C1 [Compound C8, N-(3-((1r,3S)-3-cyano-1-((4-methyl-4H-1,2,4-triazol-3-yl)methyl)cyclobutyl)phenyl)-7,7-dimethyl-4-(((S)-3-methylpiperidin-1-yl)methyl)-6,7-dihydro-5H-cyclopenta[b]pyridine-2-carboxamide]
- IC50 (Cbl (aa49-434)): 1.8 nM
- IC50 (Cbl-b (aa36-427)): 1 nM

Structure (SMILES): C[C@H]1CCCN(Cc2cc(C(=O)Nc3cccc([C@]4(Cc5nncn5C)C[C@H](C#N)C4)c3)nc3c2CCC3(C)C)C1 [Compound C18, N-(3-((1s,3R)-3-cyano-1-((4-methyl-4H-1,2,4-triazol-3-yl)methyl)cyclobutyl)phenyl)-7,7-dimethyl-4-(((S)-3-methylpiperidin-1-yl)methyl)-6,7-dihydro-5H-cyclopenta[b]pyridine-2-carboxamide]
- IC50 (Cbl (aa49-434)): 3.1 nM
- IC50 (Cbl-b (aa36-427)): 1.4 nM

Structure (SMILES): C[C@H](NCc1cc(C(=O)Nc2cccc([C@]3(c4nncn4C)C[C@@H](CC#N)C3)c2)nc2cc[nH]c12)C1CCCC1 [Compound B25, N-(3-((1s,3R)-3-(cyanomethyl)-1-(4-methyl-4H-1,2,4-triazol-3-yl)cyclobutyl)phenyl)-7-((((S)-1-cyclopentylethyl)amino)methyl)-1H-pyrrolo[3,2-b]pyridine-5-carboxamide]
- IC50 (Cbl (aa49-434)): 1.1 nM
- IC50 (Cbl-b (aa36-427)): 1.2 nM

Structure (SMILES): Cn1cnnc1[C@]1(c2cccc(NC(=O)c3cc(CNCC4(C)CCC4)c4c(n3)C(C)(C)CO4)c2)C[C@H](CC#N)C1 [Compound C25, N-(3-((1s, 3s)-3-(cyanomethyl)-1-(4-methyl-4H-1,2,4-triazol-3-yl)cyclobutyl)phenyl)-3,3-dimethyl-7-((((1-methylcyclobutyl)methyl)amino)methyl)-2,3-dihydrofuro[3,2-b]pyridine-5-carboxamide]
- IC50 (Cbl (aa49-434)): 49.5 nM
- IC50 (Cbl-b (aa36-427)): 2.8 nM

Structure (SMILES): Cn1cnnc1[C@]1(c2cccc(NC(=O)c3cc(CNCC4CCCC4)cn4ccnc34)c2)C[C@H](CC#N)C1 [Compound A26, N-(3-((1s, 3s)-3-(cyanomethyl)-1-(4-methyl-4H-1,2,4-triazol-3-yl)cyclobutyl)phenyl)-6-(((cyclopentylmethyl)amino)methyl)imidazo[1,2-a]pyridine-8-carboxamide]
- IC50 (Cbl (aa49-434)): 6.3 nM
- IC50 (Cbl-b (aa36-427)): 1.3 nM

Structure (SMILES): Cn1cnnc1[C@]1(c2cccc(NC(=O)c3cc(CNC4(C)CC4)cn4cc(F)nc34)c2)C[C@H](CC#N)C1 [Compound A84, N-(3-((1s, 3s)-3-(cyanomethyl)-1-(4-methyl-4H-1,2,4-triazol-3-yl)cyclobutyl)phenyl)-2-fluoro-6-(((1-methylcyclopropyl)amino)methyl)imidazo[1,2-a]pyridine-8-carboxamide]
- IC50 (Cbl (aa49-434)): 12 nM
- IC50 (Cbl-b (aa36-427)): 0.5 nM

Structure (SMILES): CCn1cnnc1[C@]1(c2cccc(NC(=O)c3cc(CNC4(C)CC4)cn4ccnc34)c2)C[C@H](C)C1 [Compound A85, N-(3-((1s, 3s)-1-(4-ethyl-4H-1,2,4-triazol-3-yl)-3-methylcyclobutyl)phenyl)-6-(((1-methylcyclopropyl)amino)methyl)imidazo[1,2-a]pyridine-8-carboxamide]
- IC50 (Cbl (aa49-434)): 26 nM
- IC50 (Cbl-b (aa36-427)): 3.4 nM

Structure (SMILES): CC(C)CNCc1cc(C(=O)Nc2cncc([C@]3(c4nncn4C)C[C@@H](C)C3)c2)nc2cc[nH]c12 [Compound B2, 7-((isobutylamino)methyl)-N-(5-((1s, 3s)-3-methyl-1-(4-methyl-4H-1,2,4-triazol-3-yl)cyclobutyl)pyridin-3-yl)-1H-pyrrolo[3,2-b]pyridine-5-carboxamide]
- IC50 (Cbl (aa49-434)): 4.7 nM
- IC50 (Cbl-b (aa36-427)): 1.8 nM

Structure (SMILES): C[C@H](NCc1cc(C(=O)Nc2cncc([C@]3(c4nncn4C)C[C@@H](C)C3)c2)c2ncc(F)n2c1)C1CCC1 [Compound A50, 6-({[(1S)-1-cyclobutylethyl]amino}methyl)-3-fluoro-N-{5-[(1r, 3s)-3-methyl-1-(4-methyl-1,2,4-triazol-3-yl)cyclobutyl]pyridin-3-yl}imidazo[1,2-a]pyridine-8-carboxamide]
- IC50 (Cbl (aa49-434)): 1.1 nM
- IC50 (Cbl-b (aa36-427)): 0.9 nM
